Patent publication US6538013B2, “Acyclic and cyclic guanidine-and acetamidine derivatives, their preparation and their use as pesticides, esp. as parasiticides” (Novartis Animal Health US, Inc., priority 1998, dated 2003)

Legend:
Assay type in all cases: in vivo
[1] = tested on: cat fleas [Ctenocephalides felis (Bouche)]; experiment: Control of adult fleas in cats by means of pour-on application; settings: for action against adult fleas: pour-on on back of neck, 20 mg of active ingredient per kg body weight; for long-term action / long-term activity against adult fleas: evaluated up to day +63
Experimental: Test protocol for each test compound: in order to determine the effectiveness of the test compounds against fully grown fleas, four groups each of two cats are used. Each cat is infested with 100 cat fleas [Ctenocephalides felis (Bouche)] and treated with 20 mg of active ingredient per kg body weight. The treatment is effected by applying the formulation to a locally limited area on the back of the cat's neck. While one group is infested with fleas but is treated only with a placebo, that is to say a formulation without active ingredient, and serves as control, another group is treated with nitenpyram as comparison substance; the two remaining groups receive the test compounds. Evaluation is made in each case by combing surviving fleas out of the animal's coat and comparing the number counted with the number of fleas in the control group and in the group treated with nitenpyram. The procedure in detail is as follows: each cat is infested with 100 fleas immediately after treatment on day 0. On day +1, each animal is combed and the number of surviving fleas is determined; the surviving fleas are then replaced on the same cat and after 24 hours the combing and evaluation are repeated. The fleas still surviving after those 24 hours are not returned to the cat. The described procedure is then repeated on days +3, +7, +9, +14, +21, +28, +35, +42, +49, +56 and +63 and in this way the effectiveness and duration of action are determined. The effectiveness is determined in accordance with the following formula: [formula]

[2] = tested on: cat fleas [Ctenocephalides felis (Bouche)]; experiment: Control of adult fleas in cats by means of subcutaneous injection; settings: for action against adult fleas: subcutaneous injection behind left shoulder blade
Experimental: Test protocol for each test compound: in order to determine the effectiveness of the test compounds against fully grown fleas, four groups each of two cats from 1.5 to 4 years of age are used. Each cat is infested with 100 cat fleas [Ctenocephalides felis (Bouche)]. Two groups are treated with 20 mg of active ingredient per kg body weight. The treatment is effected by subcutaneous injection of a solution of the active ingredient behind the left shoulder blade. While one group is infested with fleas but is treated only with a placebo, that is to say a formulation without active ingredient, and serves as control, another group is treated with nitenpyram as comparison substance. Evaluation is made in each case by combing surviving fleas out of the animal's coat and comparing the number counted with the number of fleas in the control group and in the group treated with nitenpyram. The procedure in detail is as follows: each cat is infested with 100 fleas immediately after treatment on day 0. On day +1, each animal is combed and the number of surviving fleas is determined; the surviving fleas are then replaced on the same cat and after 24 hours the combing and evaluation are repeated. The fleas still surviving after those 24 hours are not returned to the cat. The described procedure is then repeated on days +3, +7, +9, +14, +21 and +28 and in this way the effectiveness and duration of action is determined. The effectiveness is determined using the same formula as in the preceding Example.

[3] = tested on: dog fleas [Ctenocephalides canis]; experiment: Control of adult fleas in dogs by means of pour-on application
Text: In dogs the test proceeds in an entirely analogous manner. In order to investigate the total action and any side-effects after administration in the form of a pour-on formulation, compound No. 1.008 is selected and tested on 11 dogs. The test protocol and the results are given in Example 7.
Test protocol for each test compound: in order to determine the effectiveness of the test compounds against fully grown fleas, three groups each of three dogs (1 male and 2 female beagles) are used; one group consists of two dogs (2 male beagles) and serves as control group. The entire test group consists of 11 beagles between 1 and 3.5 years of age. Each dog is infested with a total of 100 dog fleas [Ctenocephalides canis], 50 male and 50 female. Group 1 is treated with 2 mg, group 2 with 10 mg and group 3 with 20 mg of active ingredient per kg body weight. The treatment is effected by applying the pour-on formulation to a locally limited area on the back of the dog's neck. The fourth group is the control group. The latter is infested with fleas but is treated only with a placebo, that is to say a formulation without active ingredient, and serves for control purposes. Evaluation is made in each case by combing surviving fleas out of the animal's coat and comparing the number counted with the number of fleas in the control group. The procedure in detail is as follows: after treatment with the test formulation (day 0) each dog is infested on each of the subsequent days +1, +7, +14, +23, +28, +35, +49, +56, +63, +70, +77, +84 and +98 with 100 fleas. On the following day, each animal is combed and the number of surviving fleas is determined. The surviving fleas are then replaced on the same dog and after 24 hours the combing and evaluation are repeated. The fleas still surviving after those further 24 hours (2nd day after infestation with 100 fleas) are not returned to the dog. Then on days +3, +7, +9, +14, +21, +28, +35, +42 etc. the described procedure is repeated and in this way the effectiveness and the duration of action are determined. The effectiveness is determined using the formula given in Example 6.

| SMILES | action against adult fleas [1] | action against adult fleas ([2]; cats, 20 mg/kg body weight) | other results |
| --- | --- | --- | --- |
| CCN(Cc1ccc(Cl)nc1)C(=C[N+](=O)[O-])N(C)C(=O)OCOC(C)=O [Compound 1.001] | Very good action | Very good action | – |
| CCCCC(=O)OCOC(=O)N(C)C(=C[N+](=O)[O-])N(CC)Cc1ccc(Cl)nc1 [Compound 1.008] | Very good action | Very good action | action (effectiveness) to which it gradually declines after 7 weeks ([1]; pour-on, 20 mg/kg body weight): 26%; long-term action / long-term activity against adult fleas ([1]; pour-on, 20 mg/kg body weight): especially high level of long-term activity; action (effectiveness) against fleas ([3]; dogs (beagles), pour-on, groups 2, 10 and 20 mg/kg (group not stated), 79 days after application): 100%; effectiveness against fleas ([3]; dogs (beagles), pour-on, groups 2, 10 and 20 mg/kg (group not stated), day 86): 98.6%; effectiveness against fleas ([3]; dogs (beagles), pour-on, groups 2, 10 and 20 mg/kg (group not stated), day 98): 92.3%; skin irritation or other undesirable side-effects ([3]; dogs of the three test groups, pour-on 2, 10 and 20 mg/kg body weight): no skin irritation or any other undesirable side-effects |
| CCCCCCCC(=O)OCOC(=O)N(C)C(=C[N+](=O)[O-])N(CC)Cc1ccc(Cl)nc1 [Compound 1.011] | Very good action | Very good action | action (effectiveness) to which it gradually declines after 7 weeks ([1]; pour-on, 20 mg/kg body weight): 26%; long-term action / long-term activity against adult fleas ([1]; pour-on, 20 mg/kg body weight): especially high level of long-term activity |
| CCCCCCCCCCCC(=O)OCOC(=O)N(C)C(=C[N+](=O)[O-])N(CC)Cc1ccc(Cl)nc1 [Compound 1.012] | Very good action | Very good action | action (effectiveness) to which it gradually declines after 7 weeks ([1]; pour-on, 20 mg/kg body weight): 26%; long-term action / long-term activity against adult fleas ([1]; pour-on, 20 mg/kg body weight): especially high level of long-term activity; period of full action ([2]; cats, subcutaneous injection, 20 mg/kg body weight): at least 20 days; long-term action / long-term activity against adult fleas ([2]; cats, subcutaneous injection, 20 mg/kg body weight, evaluated up to day +28): especially high level of long-term activity |
| CCCCCCCCCCCCCC(=O)OCOC(=O)N(C)C(=C[N+](=O)[O-])N(CC)Cc1ccc(Cl)nc1 [Compound 1.013] | Very good action | Very good action | – |
| CCCCCCCCCCCCCCCC(=O)OCOC(=O)N(C)C(=C[N+](=O)[O-])N(CC)Cc1ccc(Cl)nc1 [Compound 1.014] | Very good action | Very good action | – |
| CCCCCCCCCCCCCCCCCC(=O)OCOC(=O)N(C)C(=C[N+](=O)[O-])N(CC)Cc1ccc(Cl)nc1 [Compound 1.015] | Very good action | Very good action | – |
| CCN(Cc1ccc(Cl)nc1)C(=C[N+](=O)[O-])N(C)C(=O)OCOC(=O)c1ccccc1 [Compound 1.018] | Very good action | Very good action | – |
| CCCCCC(=O)OCOC(=O)N(C)C(=C[N+](=O)[O-])N(CC)Cc1ccc(Cl)nc1 [Compound 1.019] | – | – | long-term action in a further, fully analogous test ([1]; pour-on): long-term action equally as excellent |
| CCN(Cc1ccc(Cl)nc1)C(=C[N+](=O)[O-])N(C)C(=O)OCOC(=O)c1ccc(C(C)(C)C)cc1 [Compound 1.022] | Very good action | Very good action | – |
| CCN(Cc1ccc(Cl)nc1)C(=C[N+](=O)[O-])N(C)C(=O)OCOC(=O)C(C)(C)CC [Compound 1.056] | – | – | long-term action in a further, fully analogous test ([1]; pour-on): long-term action equally as excellent |
| CCCCCCC(=O)OCOC(=O)N(C)C(=C[N+](=O)[O-])N(CC)Cc1ccc(Cl)nc1 [Compound 1.057] | – | – | long-term action in a further, fully analogous test ([1]; pour-on): long-term action equally as excellent |
| CCCCCCCCCCC(=O)OCOC(=O)N(C)C(=C[N+](=O)[O-])N(CC)Cc1ccc(Cl)nc1 [Compound 1.058] | – | – | long-term action in a further, fully analogous test ([1]; pour-on): long-term action equally as excellent |
| CCN(Cc1ccc(Cl)nc1)/C(=C\[N+](=O)[O-])NC [nitenpyram, (E)-N-(6-chloro-3-pyridylmethyl)-N-ethyl-N-methyl-2-nitrovinylidenediamine, reference compound] | – | – | period of full action (100% effectiveness) ([1]; pour-on, 20 mg/kg body weight): ≤ 3 weeks; period of full action ([2]; sc, 20 mg/kg): 2 days |
